Data from ChEMBL document CHEMBL1629583, “Establishment of in vitro susceptibility testing methodologies and comparative activities of piperacillin in combination with the penem {beta}-lactamase inhibitor BLI-489” (2009).
Values after ≈ are worked out from the molar mass of the structure shown.

Tests used:
Type in all cases: functional
Burkholderia cepacia = experiment: Antimicrobial activity against Burkholderia cepacia clinical isolate after 18 to 22 hrs by broth microdilution method
[1] = system: Stenotrophomonas maltophilia; experiment: Antimicrobial activity against Stenotrophomonas maltophilia clinical isolate after 18 to 22 hrs by broth microdilution method
Pseudomonas aeruginosa = experiment: Antimicrobial activity against Pseudomonas aeruginosa clinical isolate after 18 to 22 hrs by broth microdilution method
Haemophilus influenzae [2] = experiment: Antimicrobial activity against beta-lactamase-producing Haemophilus influenzae clinical isolate after 18 to 22 hrs by broth microdilution method
Haemophilus influenzae [3] = experiment: Antimicrobial activity against beta-lactamase-negative Haemophilus influenzae clinical isolate after 18 to 22 hrs by broth microdilution method
[4] = system: Haemophilus parainfluenzae; experiment: Antimicrobial activity against Haemophilus parainfluenzae clinical isolate after 18 to 22 hrs by broth microdilution method
Moraxella catarrhalis = experiment: Antimicrobial activity against Moraxella catarrhalis clinical isolate after 18 to 22 hrs by broth microdilution method
Citrobacter koseri = experiment: Antimicrobial activity against Citrobacter koseri clinical isolate after 18 to 22 hrs by broth microdilution method
Enterobacter cloacae [5] = experiment: Antimicrobial activity against Enterobacter cloacae clinical isolate after 18 to 22 hrs by broth microdilution method
Escherichia coli [6] = experiment: Antimicrobial activity against class A extended spectrum beta-lactamase- and class D OXA- producing Escherichia coli clinical isolate after 18 to 22 hrs by broth microdilution method
Escherichia coli [7] = experiment: Antimicrobial activity against Escherichia coli clinical isolate after 18 to 22 hrs by broth microdilution method
Escherichia coli [8] = experiment: Antimicrobial activity against class A extended spectrum beta-lactamase- producing Escherichia coli clinical isolate after 18 to 22 hrs by broth microdilution method
Escherichia coli [9] = experiment: Antimicrobial activity against AmpC beta-lactamase-producing Escherichia coli clinical isolate after 18 to 22 hrs by broth microdilution method
Citrobacter freundii [10] = experiment: Antimicrobial activity against AmpC beta-lactamase-producing Citrobacter freundii clinical isolate after 18 to 22 hrs by broth microdilution method
Klebsiella aerogenes [11] = experiment: Antimicrobial activity against AmpC beta-lactamase-producing Enterobacter aerogenes clinical isolate after 18 to 22 hrs by broth microdilution method
Enterobacter cloacae [12] = experiment: Antimicrobial activity against AmpC beta-lactamase-producing Enterobacter cloacae clinical isolate after 18 to 22 hrs by broth microdilution method
Serratia marcescens [13] = experiment: Antimicrobial activity against AmpC beta-lactamase-producing Serratia marcescens clinical isolate after 18 to 22 hrs by broth microdilution method
Klebsiella aerogenes [14] = experiment: Antimicrobial activity against Enterobacter aerogenes clinical isolate after 18 to 22 hrs by broth microdilution method
Citrobacter freundii [15] = experiment: Antimicrobial activity against Citrobacter freundii clinical isolate after 18 to 22 hrs by broth microdilution method
Klebsiella pneumoniae [16] = experiment: Antimicrobial activity against Klebsiella pneumoniae clinical isolate after 18 to 22 hrs by broth microdilution method
Klebsiella pneumoniae [17] = experiment: Antimicrobial activity against class A extended spectrum beta-lactamase- producing Klebsiella pneumoniae clinical isolate after 18 to 22 hrs by broth microdilution method
Klebsiella pneumoniae [18] = experiment: Antimicrobial activity against class A extended spectrum beta-lactamase- and class D OXA- producing Klebsiella pneumoniae clinical isolate after 18 to 22 hrs by broth microdilution method
Klebsiella pneumoniae [19] = experiment: Antimicrobial activity against AmpC- producing Klebsiella pneumoniae clinical isolate after 18 to 22 hrs by broth microdilution method
Klebsiella oxytoca = experiment: Antimicrobial activity against Klebsiella oxytoca clinical isolate after 18 to 22 hrs by broth microdilution method
Serratia marcescens [20] = experiment: Antimicrobial activity against Serratia marcescens clinical isolate after 18 to 22 hrs by broth microdilution method
Morganella morganii = experiment: Antimicrobial activity against Morganella morganii clinical isolate after 18 to 22 hrs by broth microdilution method
Proteus mirabilis = experiment: Antimicrobial activity against Proteus mirabilis clinical isolate after 18 to 22 hrs by broth microdilution method
Proteus vulgaris = experiment: Antimicrobial activity against Proteus vulgaris clinical isolate after 18 to 22 hrs by broth microdilution method
Providencia rettgeri = experiment: Antimicrobial activity against Providencia rettgeri clinical isolate after 18 to 22 hrs by broth microdilution method
Providencia stuartii = experiment: Antimicrobial activity against Providencia stuartii clinical isolate after 18 to 22 hrs by broth microdilution method
[21] = system: Acinetobacter calcoaceticus; experiment: Antimicrobial activity against Acinetobacter calcoaceticus clinical isolate after 18 to 22 hrs by broth microdilution method
Acinetobacter baumannii = experiment: Antimicrobial activity against Acinetobacter baumannii clinical isolate after 18 to 22 hrs by broth microdilution method
[22] = system: Acinetobacter haemolyticus; experiment: Antimicrobial activity against Acinetobacter haemolyticus clinical isolate after 18 to 22 hrs by broth microdilution method
Acinetobacter johnsonii = experiment: Antimicrobial activity against Acinetobacter johnsonii clinical isolate after 18 to 22 hrs by broth microdilution method
Acinetobacter junii = experiment: Antimicrobial activity against Acinetobacter junii clinical isolate after 18 to 22 hrs by broth microdilution method
Acinetobacter lwoffii = experiment: Antimicrobial activity against Acinetobacter lwoffii clinical isolate after 18 to 22 hrs by broth microdilution method

## CO/N=C(\C(=O)N[C@@H]1C(=O)N2C(C(=O)O)=C(CSc3nc(=O)c(O)nn3C)CS[C@H]12)c1csc(N)n1 [CEFTRIAXONE]
Burkholderia cepacia
  MIC50: 32 µg/mL (≈ 57.7 µM)
  MIC90: > 32 µg/mL
[1]
  MIC: > 32 µg/mL
  MIC50: > 32 µg/mL
  MIC90: > 32 µg/mL
Pseudomonas aeruginosa
  MIC50: > 32 µg/mL
  MIC90: > 32 µg/mL
Haemophilus influenzae [2]
  MIC: ≤ 0.03 µg/mL
  MIC50: ≤ 0.03 µg/mL
  MIC90: ≤ 0.03 µg/mL
Haemophilus influenzae [3]
  MIC: ≤ 0.03 µg/mL
  MIC50: ≤ 0.03 µg/mL
  MIC90: ≤ 0.03 µg/mL
[4]
  MIC: ≤ 0.03 µg/mL
  MIC50: ≤ 0.03 µg/mL
  MIC90: ≤ 0.03 µg/mL
Moraxella catarrhalis
  MIC: ≤ 0.03 µg/mL
  MIC50: ≤ 0.03 µg/mL
  MIC90: 0.5 µg/mL (≈ 0.902 µM)
Citrobacter koseri
  MIC50: 0.06 µg/mL (≈ 0.108 µM)
  MIC90: 0.25 µg/mL (≈ 0.451 µM)
Enterobacter cloacae [5]
  MIC50: 0.5 µg/mL (≈ 0.902 µM)
  MIC90: > 32 µg/mL
Escherichia coli [6]
  MIC: > 32 µg/mL
  MIC50: > 32 µg/mL
  MIC90: > 32 µg/mL
Escherichia coli [7]
  MIC50: 0.06 µg/mL (≈ 0.108 µM)
  MIC90: 0.06 µg/mL (≈ 0.108 µM)
Escherichia coli [8]
  MIC50: > 32 µg/mL
  MIC90: > 32 µg/mL
Escherichia coli [9]
  MIC50: > 32 µg/mL
  MIC90: > 32 µg/mL
Citrobacter freundii [10]
  MIC50: 32 µg/mL (≈ 57.7 µM)
  MIC90: > 32 µg/mL
Klebsiella aerogenes [11]
  MIC50: 32 µg/mL (≈ 57.7 µM)
  MIC90: > 32 µg/mL
Enterobacter cloacae [12]
  MIC50: 32 µg/mL (≈ 57.7 µM)
  MIC90: > 32 µg/mL
Serratia marcescens [13]
  MIC50: 32 µg/mL (≈ 57.7 µM)
  MIC90: > 32 µg/mL
Klebsiella aerogenes [14]
  MIC50: 0.12 µg/mL (≈ 0.216 µM)
  MIC90: > 32 µg/mL
Citrobacter freundii [15]
  MIC50: 0.5 µg/mL (≈ 0.902 µM)
  MIC90: > 32 µg/mL
Klebsiella pneumoniae [16]
  MIC50: 0.06 µg/mL (≈ 0.108 µM)
  MIC90: 0.12 µg/mL (≈ 0.216 µM)
Klebsiella pneumoniae [17]
  MIC50: > 32 µg/mL
  MIC90: > 32 µg/mL
Klebsiella pneumoniae [18]
  MIC50: > 32 µg/mL
  MIC90: > 32 µg/mL
Klebsiella pneumoniae [19]
  MIC50: 32 µg/mL (≈ 57.7 µM)
  MIC90: > 32 µg/mL
Klebsiella oxytoca
  MIC50: 0.06 µg/mL (≈ 0.108 µM)
  MIC90: 0.12 µg/mL (≈ 0.216 µM)
Serratia marcescens [20]
  MIC50: 0.5 µg/mL (≈ 0.902 µM)
  MIC90: > 32 µg/mL
Morganella morganii
  MIC50: 0.06 µg/mL (≈ 0.108 µM)
  MIC90: 8 µg/mL (≈ 14.4 µM)
Proteus mirabilis
  MIC50: ≤ 0.03 µg/mL
  MIC90: > 32 µg/mL
Proteus vulgaris
  MIC50: 32 µg/mL (≈ 57.7 µM)
  MIC90: > 32 µg/mL
Providencia rettgeri
  MIC50: 0.06 µg/mL (≈ 0.108 µM)
  MIC90: > 32 µg/mL
Providencia stuartii
  MIC50: 0.06 µg/mL (≈ 0.108 µM)
  MIC90: > 32 µg/mL
[21]
  MIC50: > 32 µg/mL
  MIC90: > 32 µg/mL
Acinetobacter baumannii
  MIC50: > 32 µg/mL
  MIC90: > 32 µg/mL
[22]
  MIC50: 2 µg/mL (≈ 3.61 µM)
  MIC90: 8 µg/mL (≈ 14.4 µM)
Acinetobacter johnsonii
  MIC50: 2 µg/mL (≈ 3.61 µM)
  MIC90: 8 µg/mL (≈ 14.4 µM)
Acinetobacter junii
  MIC50: 2 µg/mL (≈ 3.61 µM)
  MIC90: 8 µg/mL (≈ 14.4 µM)
Acinetobacter lwoffii
  MIC50: 2 µg/mL (≈ 3.61 µM)
  MIC90: 8 µg/mL (≈ 14.4 µM)
